≈ marks a conversion by molar mass, not a printed value. Where a SMILES comes first, the peptide text is derived from it. Bridges are numbered along the chain shown (N, C = ends). [ ]: non-standard residue; d: D form. The star is where a group is joined. Benzothiazole(2-CH2CH2CO) = O=C(CCc1nc2ccccc2s1)*; X57 = O=C(c1nc2cc(Cl)ccc2[nH]1)*; X16 = O=C(c1cnc(-c2ccccc2)nc1)*; X39 = O=C(c1noc2ccccc12)*; X67 = O=C(c1cc(Br)sc1Br)*; X7 = O=C(c1nc2ccccc2o1)*; Dab = NCC[C@H](N)C(=O)O; Abu = CC[C@H](N)C(=O)O; Dap = NC[C@H](N)C(=O)O

The results in this text go back to patent US11225505B2, “Antimicrobial polymyxin derivative compounds” (MONASH UNIVERSITY, priority 2015, dated 2022).

Common to all, as to type: cell-based
For test [1], the system named is Acinetobacter baumannii FADDI-AB030. As to the kind of experiment: microbe, parasite or virus in culture. The settings on record: FADDI-AB030. The method in brief: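 Broth microdilution MIC in cation-adjusted Mueller-Hinton broth per CLSI M100-S24; lipopeptides tested as TFA salts. FADDI-AB030 is a multidrug-resistant clinical isolate. Polymyxin B sulphate served as control.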

Test [2] relates to Klebsiella pneumoniae Kp BM1. The settings on record: Kp BM1. The method, boiled down:
(§1)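 Gram-negative bacteria susceptible to polymyxin were exposed to lipopeptide trifluoroacetates in CAMHB, and growth inhibition was read as the MIC by the CLSI microdilution protocol.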

In test [3] the test system is Pseudomonas aeruginosa FADDI-PA038. Conditions: FADDI-PA038. The method in brief: (§2)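 Values are MICs of the lipopeptide trifluoroacetic acid salts. Dilution series were set up in CAMHB as CLSI M100-S24 specifies.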
For test [4], the system named is Acinetobacter baumannii FADDI-AB034. The settings on record: FADDI-AB034. The method, boiled down:
as §2

The subject of test [5] is Pseudomonas aeruginosa FADDI-PA01. The settings on record: FADDI-. The method in brief:
as §2

Test [6] relates to Pseudomonas aeruginosa FADDI-PA022. The settings on record: FADDI-PA022. The method, boiled down:
as §2

For test [7], the system named is Klebsiella pneumoniae FADDI-KP032. Conditions: FADDI-KP032. The method, boiled down:
as §2

The test system of test [8] is Enterobacter cloacae FADDI-EC001. Conditions: FADDI-EC001. The method in brief:
as §1

The subject of test [9] is Enterobacter cloacae FADDI-EC003. Conditions: FADDI-EC003. The method in brief: as §2
In test [10] the test system is Klebsiella pneumoniae FADDI-KP022. Conditions: FADDI-KP022. The method, boiled down:
as §2

Test [11] deals with Acinetobacter baumannii ATCC 17978. Conditions: ATCC 17978. The method in brief:
as §2

In test [12] the test system is Enterobacter cloacae FADDI-EC006. Conditions: FADDI-EC006. The method in brief:
as §2

Test [13] concerns Pseudomonas aeruginosa ATCC 27853. Conditions: ATCC 27853. The method in brief: as §2

As for `CC[C@@H]1NC(=O)[C@@H](CC(C)C)NC(=O)[C@H](CCN)NC(=O)[C@@H](NC(=O)[C@H](CN)NC(=O)[C@@H](NC(=O)[C@H](CCN)NC(=O)c2nc3cc(Cl)ccc3[nH]2)[C@@H](C)O)CCNC(=O)[C@H]([C@@H](C)O)NC(=O)[C@H](CCN)NC(=O)[C@H](CCN)NC1=O` [Compound 71] (X57-[Dab]T[Dap][Dab][Dab][dL][Abu][Dab][Dab]T; lactam 4-C), the Minimum inhibitory concentration was 0.25 mg/L (≈ 0.214 µM) in test [1]; less than 0.125 mg/L in [2]; 2 mg/L (≈ 1.72 µM) in test [3]; 0.5 mg/L (≈ 0.429 µM) in test [4]; 0.25 mg/L (≈ 0.214 µM) in test [5]; 0.5 mg/L (≈ 0.429 µM) in test [6]. Further, the Minimum inhibitory concentration was less than 0.125 mg/L in test [7]; 0.25 mg/L (≈ 0.214 µM) in test [8]; less than 0.125 mg/L in test [9]; less than 0.125 mg/L in test [10]; 0.5 mg/L (≈ 0.429 µM) in test [11]; less than 0.125 mg/L in test [12]. Further, the Minimum inhibitory concentration in [13] is 0.5 mg/L (≈ 0.429 µM).

Regarding `CC[C@@H]1NC(=O)[C@@H](CC(C)C)NC(=O)[C@H](CCN)NC(=O)[C@@H](NC(=O)[C@H](CN)NC(=O)[C@@H](NC(=O)[C@H](CCN)NC(=O)CCc2nc3ccccc3s2)[C@@H](C)O)CCNC(=O)[C@H]([C@@H](C)O)NC(=O)[C@H](CCN)NC(=O)[C@H](CCN)NC1=O` [Compound 72] ({Benzothiazole(2-CH2CH2CO)}-[Dab]T[Dap][Dab][Dab][dL][Abu][Dab][Dab]T; lactam 4-C), the Minimum inhibitory concentration in test [1] was 0.5 mg/L (≈ 0.425 µM); in test [2] it was less than 0.125 mg/L; in [3] it was 0.5 mg/L (≈ 0.425 µM); in test [4], 0.5 mg/L (≈ 0.425 µM); in test [5] it was 0.5 mg/L (≈ 0.425 µM); in test [6], 0.5 mg/L (≈ 0.425 µM). In addition, the Minimum inhibitory concentration in [7] was less than 0.125 mg/L; in [8], less than 0.125 mg/L; in test [9], less than 0.125 mg/L; in test [10], less than 0.125 mg/L; in [11], 0.5 mg/L (≈ 0.425 µM); in test [12] it was less than 0.125 mg/L. Moreover, the Minimum inhibitory concentration in test [13] is recorded as 0.5 mg/L (≈ 0.425 µM).

Take `CC[C@@H]1NC(=O)[C@@H](CC(C)C)NC(=O)[C@H](CCN)NC(=O)[C@@H](NC(=O)[C@H](CN)NC(=O)[C@@H](NC(=O)[C@H](CCN)NC(=O)c2cnc(-c3ccccc3)nc2)[C@@H](C)O)CCNC(=O)[C@H]([C@@H](C)O)NC(=O)[C@H](CCN)NC(=O)[C@H](CCN)NC1=O` [Compound 73] (X16-[Dab]T[Dap][Dab][Dab][dL][Abu][Dab][Dab]T; lactam 4-C): the Minimum inhibitory concentration was 0.5 mg/L (≈ 0.428 µM) in test [1]; less than 0.125 mg/L in test [2]; 2 mg/L (≈ 1.71 µM) in test [3]; 0.5 mg/L (≈ 0.428 µM) in [4]; 0.5 mg/L (≈ 0.428 µM) in test [5]; 0.5 mg/L (≈ 0.428 µM) in test [6]. Moreover, the Minimum inhibitory concentration is less than 0.125 mg/L in test [7]; less than 0.125 mg/L in test [8]; 0.5 mg/L (≈ 0.428 µM) in test [9]; less than 0.125 mg/L in test [10]; 0.5 mg/L (≈ 0.428 µM) in [11]; 1 mg/L (≈ 0.855 µM) in test [12]. Besides, in test [13], the Minimum inhibitory concentration turned out to be 0.5 mg/L (≈ 0.428 µM).

With `CC[C@@H]1NC(=O)[C@@H](CC(C)C)NC(=O)[C@H](CCN)NC(=O)[C@@H](NC(=O)[C@H](CN)NC(=O)[C@@H](NC(=O)[C@H](CCN)NC(=O)c2nc3ccccc3o2)[C@@H](C)O)CCNC(=O)[C@H]([C@@H](C)O)NC(=O)[C@H](CCN)NC(=O)[C@H](CCN)NC1=O` [Compound 74] (X7-[Dab]T[Dap][Dab][Dab][dL][Abu][Dab][Dab]T; lactam 4-C), the Minimum inhibitory concentration in test [1] is listed as 0.5 mg/L (≈ 0.442 µM); in test [2] it was 0.25 mg/L (≈ 0.221 µM); in [3], 0.5 mg/L (≈ 0.442 µM); in [4] it was 1 mg/L (≈ 0.883 µM); in test [5] it was 0.5 mg/L (≈ 0.442 µM); in [6], 0.25 mg/L (≈ 0.221 µM). The Minimum inhibitory concentration in test [7] is 0.25 mg/L (≈ 0.221 µM); in [8] it was less than 0.125 mg/L; in [9], less than 0.125 mg/L; in [10], less than 0.125 mg/L; in [11], 1 mg/L (≈ 0.883 µM); in test [12], 0.5 mg/L (≈ 0.442 µM). Moreover, the Minimum inhibitory concentration in [13] turned out to be 0.25 mg/L (≈ 0.221 µM).

`CC[C@@H]1NC(=O)[C@@H](CC(C)C)NC(=O)[C@H](CCN)NC(=O)[C@@H](NC(=O)[C@H](CN)NC(=O)[C@@H](NC(=O)[C@H](CCN)NC(=O)c2noc3ccccc23)[C@@H](C)O)CCNC(=O)[C@H]([C@@H](C)O)NC(=O)[C@H](CCN)NC(=O)[C@H](CCN)NC1=O` [Compound 75] (X39-[Dab]T[Dap][Dab][Dab][dL][Abu][Dab][Dab]T; lactam 4-C): the Minimum inhibitory concentration amounted to 0.5 mg/L (≈ 0.442 µM) in test [1]; 0.25 mg/L (≈ 0.221 µM) in test [2]; 1 mg/L (≈ 0.883 µM) in [3]; 0.5 mg/L (≈ 0.442 µM) in [4]; 0.5 mg/L (≈ 0.442 µM) in [5]; 0.5 mg/L (≈ 0.442 µM) in test [6]. For the same compound, the Minimum inhibitory concentration in [7] is listed as 0.25 mg/L (≈ 0.221 µM); in test [8], less than 0.125 mg/L; in test [9], less than 0.125 mg/L; in [10] it was less than 0.125 mg/L; in [11], 1 mg/L (≈ 0.883 µM); in [12], 1 mg/L (≈ 0.883 µM). This compound displayed a Minimum inhibitory concentration in [13] of 0.5 mg/L (≈ 0.442 µM).

For `CC[C@@H]1NC(=O)[C@@H](CC(C)C)NC(=O)[C@H](CCN)NC(=O)[C@@H](NC(=O)[C@H](CN)NC(=O)[C@@H](NC(=O)[C@H](CCN)NC(=O)c2cc(Br)sc2Br)[C@@H](C)O)CCNC(=O)[C@H]([C@@H](C)O)NC(=O)[C@H](CCN)NC(=O)[C@H](CCN)NC1=O` [Compound 76] (X67-[Dab]T[Dap][Dab][Dab][dL][Abu][Dab][Dab]T; lactam 4-C), the Minimum inhibitory concentration was 0.25 mg/L (≈ 0.199 µM) in test [1]; less than 0.125 mg/L in [2]; 0.5 mg/L (≈ 0.398 µM) in [3]; less than 0.125 mg/L in test [4]; 0.25 mg/L (≈ 0.199 µM) in [5]; 0.25 mg/L (≈ 0.199 µM) in test [6]. For the same compound, the Minimum inhibitory concentration in test [7] is on record as less than 0.125 mg/L; in [8], 0.25 mg/L (≈ 0.199 µM); in [9], less than 0.125 mg/L; in test [10], less than 0.125 mg/L; in test [11] it was less than 0.125 mg/L; in test [12], less than 0.125 mg/L. In test [13], this compound registered a Minimum inhibitory concentration of 0.25 mg/L (≈ 0.199 µM).
